Source: patent US20090030015A1, “NOVEL MULTI-CYCLIC COMPOUNDS” (REVOTAR BIOPHARMACEUTICALS AG, priority 2005, published 2009)

Assays:
[1] = molecular target: T1, human P-Selectin-IgG-chimera (Homo sapiens, UniProt P16109); experiment: Sialyl Lewis X Tyrosine Sulfate Assay (sLex TSA), P-selectin; format: binding; settings: sLexTSA; for P-Selectin [% inhib.]: in vitro inhibition at 100 μM
T1 sequence (P16109 42-771 limits assumed): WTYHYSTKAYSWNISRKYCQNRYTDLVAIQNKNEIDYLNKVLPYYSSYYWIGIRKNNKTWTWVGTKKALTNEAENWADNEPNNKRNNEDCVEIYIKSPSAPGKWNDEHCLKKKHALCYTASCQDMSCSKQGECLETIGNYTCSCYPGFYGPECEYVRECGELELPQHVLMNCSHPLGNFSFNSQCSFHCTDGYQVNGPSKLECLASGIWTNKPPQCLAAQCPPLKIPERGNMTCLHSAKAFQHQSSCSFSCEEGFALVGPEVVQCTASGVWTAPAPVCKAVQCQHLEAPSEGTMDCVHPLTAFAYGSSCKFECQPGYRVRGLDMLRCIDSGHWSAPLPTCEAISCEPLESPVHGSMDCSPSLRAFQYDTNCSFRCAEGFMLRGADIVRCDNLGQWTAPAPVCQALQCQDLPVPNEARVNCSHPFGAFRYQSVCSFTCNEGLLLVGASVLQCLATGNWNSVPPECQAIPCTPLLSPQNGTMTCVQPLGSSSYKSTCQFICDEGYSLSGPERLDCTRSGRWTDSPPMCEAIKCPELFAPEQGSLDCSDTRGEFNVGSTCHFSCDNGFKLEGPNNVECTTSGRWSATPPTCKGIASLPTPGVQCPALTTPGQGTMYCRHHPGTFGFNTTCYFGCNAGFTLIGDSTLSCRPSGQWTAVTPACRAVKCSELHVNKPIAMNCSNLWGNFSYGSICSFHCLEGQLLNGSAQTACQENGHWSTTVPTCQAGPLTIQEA
Procedure: (§1) Sialyl Lewis^X Tyrosine Sulfate Assay (sLe^x TSA):
(§2) Compounds of the present invention are assayed on a molecular level for their ability to inhibit the binding of P-, L-, or E-selectin chimeric molecules to sLe^x and tyrosinesulfate residues linked to a polymeric matrix as a PSGL-1 substitute. Selected IC50-values are determined.
(§3) Microtiter plates are coated overnight in carbonate buffer pH9.6 with goat anti human Fc mAB (10 μg/ml). After washing in assay buffer (25 mM 4-(2-hydroxyethyl)-1-piperazineethanesulfonic acid (HEPES), 150 mM NaCl, 1 mM CaCl2 pH7.4) and blocking (3% bovine serum albumin (BSA) in assay buffer) plates are incubated for 2 h at 37° C. with human P-Selectin-IgG-chimera (0.61 nM respectively 150 ng/mL) or human L-Selectin-IgG-chimera (0.61 nM respectively 89 ng/mL) or human E-Selectin-IgG-chimera (0.61 nM respectively 131 ng/mL). 5 μl of sLe^x-tyrosine sulfate polyacrylamide (1 mg/ml) carrying 15% sLe^x, 10% Tyrosine-sulfate and 5% biotin is complexed with 20 μl Streptavidin-Peroxidase solution (1 mg/ml) and 25 μl assay buffer without CaCl2. For use in the assay, the ligand complex is diluted 1:10000 in assay buffer and further diluted 1:1 with varying amounts of compounds in assay buffer incl. 2% DMSO. This mixture is added to the wells precoated with E- or P-selectin. After incubation for 2 h at 37° C., wells are washed for six times with in assay buffer incl. 0.005% Polyoxyethylenesorbitan monolaurate (TWEEN 20), developed for 10-15 min with 20 μl 3,3′,5,5′-tetramethylbenzidine (TMB)/H2O2 substrate solution and stopped with 20 μl 1M H2SO4. Bound sLe^x-Tyrosine sulfate ligand complex is determined by measuring optical density at 450 nm vs. 620 nm in a Fusion alpha-FP reader (sold from Packard Bioscience, Dreieich, Germany).

[2] = molecular target: T2, human E-Selectin-IgG-chimera (Homo sapiens, UniProt P16581); experiment: Sialyl Lewis X Tyrosine Sulfate Assay (sLex TSA), E-selectin; format: binding; settings: sLexTSA; for E-Selectin [% inhib.]: in vitro inhibition at 100 μM
T2 construct: fused on or other part: human IgG Fc part, captured on the plate by goat anti human Fc antibody; a tag, no second protein
T2 sequence (P16581 22-175 limits assumed): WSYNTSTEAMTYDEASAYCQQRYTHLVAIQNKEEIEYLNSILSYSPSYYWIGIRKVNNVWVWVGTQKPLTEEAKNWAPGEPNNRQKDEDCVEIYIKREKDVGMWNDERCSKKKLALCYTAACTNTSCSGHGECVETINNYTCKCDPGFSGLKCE
Procedure: as §1, §2, §3

[3] = molecular target: T3, human L-Selectin-IgG-chimera (Homo sapiens, UniProt P14151); experiment: Sialyl Lewis X Tyrosine Sulfate Assay (sLex TSA), L-selectin; format: binding; settings: sLexTSA; for L-Selectin [% inhib.]: in vitro inhibition at 100 μM
T3 construct: fused on or other part: human IgG Fc part, captured on the plate by goat anti human Fc antibody; a tag, no second protein
T3 sequence (P14151 39-318 limits assumed): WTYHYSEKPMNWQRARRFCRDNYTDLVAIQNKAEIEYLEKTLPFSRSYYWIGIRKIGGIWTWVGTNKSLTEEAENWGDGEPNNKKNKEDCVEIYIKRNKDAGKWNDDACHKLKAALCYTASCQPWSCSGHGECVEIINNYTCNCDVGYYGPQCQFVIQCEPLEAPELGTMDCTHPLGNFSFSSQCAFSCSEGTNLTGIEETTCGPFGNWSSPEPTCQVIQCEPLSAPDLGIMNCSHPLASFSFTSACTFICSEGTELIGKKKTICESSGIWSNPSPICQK
Procedure: as §1, §2, §3

[4] = tested on: human E-selectin-IgG chimera; experiment: Flow chamber assay, cell adhesion and rolling under flow conditions, E-selectin; format: cell-based; settings: normalized ratio of %-inhibition of compound divided by %-inhibition of bimosiamose; 125 μM compound; HL-60 cells; flow shear 1 dyne/cm^2
Procedure: (§4) Flow Chamber Assay/Cell Adhesion and Rolling Under Flow Conditions
(§5) To assess the capability of compounds to inhibit cell binding under dynamic conditions resembling the flow in a blood vessel, flow chamber assays addressing/testing binding of HL-60 cells/various cell lines to P-selectin, L-selectin and E-selectin chimeric molecules are performed.
(§6) Cell attachment under flow conditions is determined using a parallel flow chamber system. A 35 mm polystyrene culture dish is coated for 1 hour at room temperature with coating buffer (50 mM tris-(hydroxymethyl)aminomethane buffer (Tris), 150 mM NaCl, 2 mM CaCl2; pH 7.4) containing human E- or P-selectin-IgG chimera at concentrations of 2.5 μg/ml or 10 μg/ml, respectively. After removal of the coating solution non specific binding sites are blocked for an additional hour with 1% BSA in coating buffer at room temperature. After washing with assay buffer (“Roswell Park Memorial Institute 1640” (RPMI 1640)+10 mM HEPES) the dish is fitted into a parallel plate laminar flow chamber (sold from Glycotech, Rockville, Md.) and mounted on an inverted phase-contrast microscope (sold from Olympus, Hamburg, Germany) equipped with a CCD camera (JVC) that is connected to a PC. Employing a peristaltic pump (sold from Ismatec, Wertheim-Mondfeld, Germany) the re-circulating system is equilibrated with assay buffer containing 125 μM compound or vehicle control (DMSO). Cells (1 million/ml) are added to the chamber and allowed to distribute for 2 minutes at a high flow rate. The flow rate is then decreased resulting in a calculated flow shear of 1 dyne/cm^2. Video sequences of 10 low power fields are digitally recorded after 5 minutes continuous flow. The percentage of inhibition is calculated from the mean number of cells per field that attached to the coated dish surface in the presence versus absence of compound […].

[5] = tested on: human P-selectin-IgG chimera; experiment: Flow chamber assay, cell adhesion and rolling under flow conditions, P-selectin; format: cell-based; settings: normalized ratio of %-inhibition of compound divided by %-inhibition of bimosiamose; 125 μM compound; HL-60 cells; flow shear 1 dyne/cm^2
Procedure: as §4, §5, §6

SMILES | P-Selectin [% inhib.] [1] | E-Selectin [% inhib.] [2] | L-Selectin [% inhib.] [3] | IC50 [1] | IC50 [2] | IC50 [3] | E-Selectin [Ratio] [4] | P-Selectin [Ratio] [5]
O=C(O)CN1CCN(C(=O)CCCNC(=O)c2cc(O)cc(O)c2)CC1 [Compound 23, {4-[4-(3,5-Dihydroxy-benzoylamino)-butyryl]-piperazin-1-yl}-acetic acid] | 18.9 % inhib. | 10.5 % inhib. | 11.6 % inhib. |  |  |  |  | 
COc1ccc(CC(=O)Nc2ccc(-c3cc(C(=O)O)c(C)o3)cc2)c(OC)c1 [Compound 28, 5-{4-[2-(2,4-Dimethoxy-phenyl)-acetylamino]-phenyl}-2-methyl-furan-3-carboxylic acid] |  |  |  | 238 µM | 201 µM | 319 µM | 0.99 Ratio | n.s.
COc1cc(CC(=O)Nc2ccc(-c3cc(C(=O)O)c(C)o3)cc2)cc(OC)c1 [Compound 30, 5-{4-[2-(3,5-Dimethoxy-phenyl)-acetylamino]-phenyl}-2-methyl-furan-3-carboxylic acid] |  |  |  | 133 µM | > 500 µM | 376 µM | 1.03 Ratio | n.s.
COC(=O)CCc1cccc(NC(=O)CCCNC(=O)c2cc(O)cc(O)c2)c1 [Compound 33] | 10.6 % inhib. | 38.6 % inhib. | 27.3 % inhib. |  |  |  |  | 
COC(=O)Cc1cccc(NC(=O)CCCNC(=O)c2cc(O)cc(O)c2)c1 [Compound 35] | 15.6 % inhib. | 40.8 % inhib. | 19.4 % inhib. |  |  |  |  | 
COC(=O)c1ccc(C)c(NC(=O)CCCNC(=O)c2cc(O)cc(O)c2)c1 [Compound 37] | 5.2 % inhib. | 38.9 % inhib. | 9.5 % inhib. |  |  |  |  | 
Cc1c(NC(=O)CCCNC(=O)c2cc(O)cc(O)c2)cccc1C(=O)O [Compound 38] | 9.4 % inhib. | 40.9 % inhib. | 19.3 % inhib. |  |  |  |  | 
O=C(CCCNC(=O)c1cc(O)cc(O)c1)NCc1ccc(C(=O)O)cc1 [Compound 39] | 2.9 % inhib. | 24.8 % inhib. | 10.9 % inhib. |  |  |  |  | 
COC(=O)c1ccc(CNC(=O)CCCNC(=O)c2cc(O)cc(O)c2)cc1 [Compound 40] | 28.2 % inhib. | 34.4 % inhib. | 31.1 % inhib. |  |  |  |  | 
O=C(O)Cc1ccc(-c2ccccc2NC(=O)c2cncc(-c3ccc(O)cc3O)c2)s1 [Compound 73, [5-(2-{[5-(2,4-Dihydroxy-phenyl)-pyridine-3-carbonyl]-amino}-phenyl)-thiophen-2-yl]-acetic acid] |  |  |  | 260 µM |  | 502 µM | 0.99 Ratio | 1.20 Ratio
Cc1oc(-c2ccc(NC(=O)c3cncc(-c4ccc(O)cc4O)c3)cc2)cc1C(=O)O [Compound 76, 5-(4-{[5-(2,4-Dihydroxy-phenyl)-pyridine-3-carbonyl]-amino}-phenyl)-2-methyl-furan-3-carboxylic acid] |  |  |  | 234 µM | 480 µM | 278 µM | 0.61 Ratio | 1.26 Ratio
COc1cc(OC)cc(-c2cccc(C(=O)Nc3ccccc3-c3ccc(CC(=O)O)s3)c2)c1 [Compound 81, (5-{2-[(3′,5′-Dimethoxy-biphenyl-3-carbonyl)-amino]-phenyl}-thiophen-2-yl)-acetic acid] |  |  |  | 35.3 µM |  | 131 µM | 1.27 Ratio | 1.55 Ratio
COc1cc(OC)cc(-c2cccc(C(=O)Nc3ccccc3-c3ccc(C(=O)O)s3)c2)c1 [Compound 84, 5-{2-[(3′,5′-Dimethoxy-biphenyl-3-carbonyl)-amino]-phenyl}-thiophene-2-carboxylic acid] |  |  |  | 46.6 µM |  | 144 µM | 1.36 Ratio | 1.02 Ratio

Second part, led by results:

P-Selectin [% inhib.] [1] | E-Selectin [% inhib.] [2] | L-Selectin [% inhib.] [3] | IC50 [1] | IC50 [2] | IC50 [3] | SMILES | E-Selectin [Ratio] [4] | P-Selectin [Ratio] [5]
3.0 % inhib. | 40.7 % inhib. | 18.7 % inhib. |  |  |  | O=C(CCCNC(=O)c1cc(O)cc(O)c1)Nc1cccc(C(=O)O)c1 [Compound 21, 3-[4-(3,5-Dihydroxy-benzoylamino)-butyrylamino]-benzoic acid] |  | 
22.7 % inhib. | 42.7 % inhib. | 21.3 % inhib. |  |  |  | COC(=O)c1cccc(NC(=O)CCCNC(=O)c2cc(O)cc(O)c2)c1 [Compound 22, 3-[4-(3,5-Dihydroxy-benzoylamino)-butyrylamino]-benzoic acid methyl ester] |  | 
0.5 % inhib. | 35.9 % inhib. | 5.9 % inhib. |  |  |  | O=C(CCCNC(=O)c1cc(O)cc(O)c1)Nc1ccc(C(=O)O)cc1 [Compound 24, 4-[4-(3,5-Dihydroxy-benzoylamino)-butyrylamino]-benzoic acid] |  | 
1.4 % inhib. | 35.0 % inhib. | 13.1 % inhib. |  |  |  | O=C(O)CCc1cccc(NC(=O)CCCNC(=O)c2cc(O)cc(O)c2)c1 [Compound 32] |  | 
12.9 % inhib. | 41.0 % inhib. | 18.1 % inhib. |  |  |  | O=C(O)Cc1cccc(NC(=O)CCCNC(=O)c2cc(O)cc(O)c2)c1 [Compound 34] |  | 
1.2 % inhib. | 35.8 % inhib. | 6.8 % inhib. |  |  |  | Cc1ccc(C(=O)O)cc1NC(=O)CCCNC(=O)c1cc(O)cc(O)c1 [Compound 36] |  | 
